From patent US20120295838A1, “Selective poly-substituted glycine antibiotics and related compositions” (priority 2008, published 2012) come the findings set out here.

Read-outs that look alike come from different tables or passages of the source. Square brackets hold non-standard residues; d marks the D form. Peptide text beside a SMILES is read from it. N(1S-Me-propyl)Gly = CC[C@H](C)NCC(=O)O; Nrpe = C[C@@H](NCC(=O)O)c1ccccc1; Nspe = C[C@H](NCC(=O)O)c1ccccc1; Nlys = NCCCCNCC(=O)O

For series [1], the system named is human erythrocytes. Put plainly: Hemolysis assay. It is filed as cell-based. The method, then:
(§1) Hemolysis assays. Erythrocytes were isolated from freshly drawn, heparanized human blood and resuspended to 20 vol % in PBS (pH 7.4). In a 96-well microtiter plate, 100 μL erythrocyte suspension was added to 100 uL peptoid solution in PBS (prepared by 1:2 serial dilutions), or 100 μL PBS in the case of negative controls. 100% hemolysis wells contained 100 μL, blood cell suspension with 100 μL 0.2 vol % Triton X-100. The plate was incubated for 1 h at 37° C., then each well was diluted with 1504 PBS. The plate was then centrifuged at 1200 g for 15 min, 100 μL of the supernatant from each well transferred to a fresh microtiter plate, and A350 measured.
Hemolysis assays. Erythrocytes were isolated from freshly drawn, heparanized human blood and resuspended in PBS (pH 7.4) to make a 20% volume suspension. Peptoid solutions were prepared by serial dilution (2:1) in a 96-well microtiter plate. For test wells, 100 μLL of erythrocyte suspension was added to 100 μL of peptoid solution in PBS; PBS without peptoid was used as the negative control and 0.2 vol % Triton X-100 as the positive control that indicates 100% hemolysis. After 1 hour incubation at 37° C., each well was diluted with 150 μL PBS. Plates were then centrifuged at 1,200×g for 15 minutes to pellet the cells. 30 μL of the supernatant from each well were transferred to the corresponding well of a second 96-well plate that contains 70 μL PBS.
as §1, with “assays for Compositions.” for “assays.”, “100” for “100 uL”, “μL” for “μL,”, “150 μL” for “1504”, “1200g” for “1200 g”

Series [2] in a line: MTS assay, NIH 3T3 cells. It is filed as cell-based, mouse. Conditions: NIH 3T3 fibroblast cells. The method, then: The potencies of all compounds were determined against representative Gram-negative (E. coli ATCC 35218) and Gram-positive (B. subtilis ATCC 6633) biosafety level 1 (BSL1) organisms. In addition to hemolytic activity, the conventional measure of toxicity to mammalian cells, the effect of each ampetoid on NIH 3T3 mouse fibroblast cells was determined using the MTS tetrazolium salt-based colorimetric assay. While hemolysis measures the degree to which erythrocytes are lysed, the MTS assay indirectly quantifies the extent to which cellular metabolic activity is inhibited.
MTS assays. NIH/3T3 cells (ATCC Corporation) cultured at 37° C. and 5% CO2 in complete Dulbecco's modified eagle's media (CDMEM) supplemented with 1% sodium pyruvate, 1% penicillin-streptomycin, 1.5 g/L NaHCO3, and 10% fetal bovine serum. Cells were seeded at a density of 5,000 cells per well for NIH/3T3 cells in 96-well plates (100 μl total volume). A peptoid solution plate (100 μL total volume per well) was prepared by serial dilution of aqueous peptoid stock solution in Hank's balanced salt solution (HBSS) media. The day-old cell monolayers were washed with HBSS and media was replaced with 100 μL HBSS. The contents of the peptoid solution plate were transferred onto corresponding wells of the cell monolayer plate, and 40 μL MTS reagent (Promega, Inc.) was added to each well. After incubating for 3 hours at 37° C., absorbance at 490 nm was determined. […] The average of six replicates is reported.

[3] abbreviates: Table 6, 50% inhibitory dose against NIH 3T3 mouse fibroblast cells, read-out: ID50.

As for `C[C@@H](c1ccccc1)N(CC(N)=O)C(=O)CN(C(=O)CN(CCC(=O)O)C(=O)CN(C(=O)CN(C(=O)CN(CCC(=O)O)C(=O)CN(C(=O)CN(C(=O)CN(CCC(=O)O)C(=O)CN(C(=O)CN(C(=O)CNCCC(=O)O)[C@@H](C)c1ccccc1)[C@@H](C)c1ccccc1)[C@@H](C)c1ccccc1)[C@@H](C)c1ccccc1)[C@@H](C)c1ccccc1)[C@@H](C)c1ccccc1)[C@@H](C)c1ccccc1` [1-Nglu1.4.7.10, H-(Nglu-Nspe-Nspe)4-NH2], the “HD10 (10% hemolytic dose)” value in series [1] (red cells of human, 1 h) is listed as >110/>110 μM.

For the compound `C[C@H](c1ccccc1)N(CC(=O)N(CCCCN)CC(=O)N(CC(=O)N(CC(=O)N(CCCCN)CC(=O)N(CC(=O)N(CC(=O)N(CCCCN)CC(=O)N(CC(=O)N(CC(N)=O)[C@@H](C)c1ccccc1)[C@@H](C)c1ccccc1)[C@@H](C)c1ccccc1)[C@@H](C)c1ccccc1)[C@H](C)c1ccccc1)[C@H](C)c1ccccc1)C(=O)CN(C(=O)CNCCCCN)[C@H](C)c1ccccc1` [1-Nrpe2,3,5,6, H-(Nlys-Nrpe-Nrpe)2-(Nlys-Nspe-Nspe)2-NH2] (H-[Nlys][Nrpe][Nrpe][Nlys][Nrpe][Nrpe][Nlys][Nspe][Nspe][Nlys][Nspe][Nspe]-NH2), in series [2] (setting [3]), the CC50 at 3 h was found to be 4.8 µM.

For the compound `C[C@H](c1ccccc1)N(CC(=O)N(CC(N)=O)[C@@H](C)c1ccccc1)C(=O)CN(CCCCN)C(=O)CN(C(=O)CN(C(=O)CN(CCCCN)C(=O)CN(C(=O)CN(C(=O)CN(CCCCN)C(=O)CN(C(=O)CN(C(=O)CNCCCCN)[C@H](C)c1ccccc1)[C@@H](C)c1ccccc1)[C@H](C)c1ccccc1)[C@@H](C)c1ccccc1)[C@H](C)c1ccccc1)[C@@H](C)c1ccccc1` [1-Nrpe2,5,8,11, H-(Nlys-Nrpe-Nspe)4-NH2] (H-[Nlys][Nrpe][Nspe][Nlys][Nrpe][Nspe][Nlys][Nrpe][Nspe][Nlys][Nrpe][Nspe]-NH2), the CC50 at 3 h in series [2] (setting [3]) came to 5.2 µM.

With `C[C@H](c1ccccc1)N(CC(N)=O)C(=O)CN(C(=O)CN(CCCCN)C(=O)CN(C(=O)CN(C(=O)CN(CCCCN)C(=O)CN(C(=O)CN(C(=O)CN(CCCCN)C(=O)CN(C(=O)CN(C(=O)CNCCCCN)[C@@H](C)c1ccccc1)[C@H](C)c1ccccc1)[C@@H](C)c1ccccc1)[C@H](C)c1ccccc1)[C@@H](C)c1ccccc1)[C@H](C)c1ccccc1)[C@@H](C)c1ccccc1` [1-Nrpe3,6,9,12, H-(Nlys-Nspe-Nrpe)4-NH2], in series [2] (setting [3]), the CC50 at 3 h came to 3.8 µM.

Turning to `C[C@H](NCC(=O)N(CCCCN)CC(=O)N(CC(=O)N(CCCCN)CC(=O)N(CCCCN)CC(=O)N(CCCCN)CC(=O)N(CC(=O)N(CCCCN)CC(=O)N(CC(=O)N(CCCCN)CC(=O)N(CCCCN)CC(=O)N(CC(N)=O)[C@@H](C)c1ccccc1)[C@@H](C)c1ccccc1)[C@@H](C)c1ccccc1)[C@@H](C)c1ccccc1)c1ccccc1` [1B12 mer-Nlys4,6,10, H-Nspe-Nlys-Nspe-Nlys-Nlys-Nlys-Nspe-Nlys-Nspe-Nlys-Nlys-Nspe-NH2] (H-[Nspe][Nlys][Nspe][Nlys][Nlys][Nlys][Nspe][Nlys][Nspe][Nlys][Nlys][Nspe]-NH2), the CC50 at 3 h in series [2] (mouse) is above 100 µM.

On to `CC[C@H](C)N(CC(=O)N(CC(=O)N(CC(=O)N(CCCCN)CC(N)=O)[C@@H](C)c1ccccc1)[C@@H](C)CC)C(=O)CN(CCCCN)C(=O)CN(C(=O)CN(CCCCN)C(=O)CN(C(=O)CN(C(=O)CN(C(=O)CN(C(=O)CNCCCCN)[C@@H](C)CC)[C@@H](C)c1ccccc1)[C@@H](C)CC)[C@@H](C)c1ccccc1)[C@@H](C)c1ccccc1` [2scrambled, H-Nlys-Nssb-Nspe-Nssb-Nspe-Nlys-Nspe-Nlys-Nssb-Nssb-Nspe-Nlys-NH2] (H-[Nlys][N(1S-Me-propyl)Gly][Nspe][N(1S-Me-propyl)Gly][Nspe][Nlys][Nspe][Nlys][N(1S-Me-propyl)Gly][N(1S-Me-propyl)Gly][Nspe][Nlys]-NH2), for which the “HD10 (10% hemolytic dose)” value in series [1] was above 120 µM.

As for `C[C@@H](c1ccccc1)N(CC(N)=O)C(=O)CN(C(=O)CN(CCCCN)C(=O)CN(C(=O)CN(C(=O)CNCCCCN)[C@@H](C)c1ccccc1)[C@@H](C)c1ccccc1)[C@@H](C)c1ccccc1` [16 mer, H-(Nlys-Nspe-Nspe)2-NH2] (H-[Nlys][Nspe][Nspe][Nlys][Nspe][Nspe]-NH2), in series [1], the HD10 was >200/>200 μM and the HD50 is >200/>200 μM.
